In patent US11643391B2, “Prodrugs and conjugates of dimethyltryptamine” (priority 2021, dated 2023):

Legend:
[1] = background statement, cited from earlier work
[2] = Stability in PBS pH 6.5; conditions: for half-life: PBS, pH 6.5, T½
[3] = Stability in SGF without pepsin; type: physicochemical; conditions: for half-life: Table 8, if calculated T½ < 0, T½ reported as 9999 min
[4] = Stability in SGF with pepsin; type: physicochemical
[5] = physchem; conditions: buffer, pH 6.5
[6] = Stability in Mouse Plasma; type: in vitro ADME
[7] = Table 8, if calculated T½ < 0, T½ reported as 9999 min

CN(C)CCc1c[nH]c2ccccc12 [DMT, N,N-dimethyltryptamine]
estimated half-life ([1]; at higher doses): less than fifteen minutes
oral bioavailability ([1]; converted by monoamine oxidases): poor oral bioavailability

O=C(O)CCCc1ccc(N(CCCl)CCCl)cc1 [Chlorambucil, reference compound]
half-life [2, 7]: 47.2 min
half-life ([2]; Table 10): 43.2 min
Remaining Percentage ([2]; Table 8, 0 min): 100.00%
Remaining Percentage ([2]; Table 8, 30 min): 64.51%
Remaining Percentage ([2]; Table 8, 60 min): 42.26%
Remaining Percentage ([2]; Table 8, 120 min): 16.83%
Remaining Percentage ([2]; Table 8, 240 min): 2.99%
Remaining Percentage ([2]; Table 10, 0 min): 100.00%
Remaining Percentage ([2]; Table 10, 30 min): 61.12%
Remaining Percentage ([2]; Table 10, 60 min): 43.17%
Remaining Percentage ([2]; Table 10, 120 min): 15.12%
Remaining Percentage ([2]; Table 10, 240 min): 2.15%

CC(OC(=O)C(C)C)OC(=O)n1cc(CCN(C)C)c2ccccc21 (stereo not drawn) [VLS-03-10]
Peak Area of MRM: 188.7/144.0 (analyte VLS-03-10 Parent) ([2]; 0 min): 5.32E+03
Peak Area of MRM: 188.7/144.0 (analyte VLS-03-10 Parent) ([2]; 30 min): 4.68E+03
Peak Area of MRM: 188.7/144.0 (analyte VLS-03-10 Parent) ([2]; 60 min): 5.00E+03
Peak Area of MRM: 188.7/144.0 (analyte VLS-03-10 Parent) ([2]; 120 min): 4.72E+03
Peak Area of MRM: 188.7/144.0 (analyte VLS-03-10 Parent) ([2]; 240 min): 4.95E+03
Remaining Percentage ([2]; Table 8, 0 min): 100.00%
Remaining Percentage ([2]; Table 8, 30 min): 92.62%
Remaining Percentage ([2]; Table 8, 60 min): 100.03%
Remaining Percentage ([2]; Table 8, 120 min): 92.63%
Remaining Percentage ([2]; Table 8, 240 min): 97.66%
Peak Area of MRM: 188.7/144.0 (analyte VLS-03-10 Parent) ([2]; VLS-03-10 standard): 4.34E+03
Peak Area of MRM: 188.7/144.0 (analyte VLS-03-10 Parent) ([3]; 0 min): 5.29E+03
Peak Area of MRM: 188.7/144.0 (analyte VLS-03-10 Parent) ([3]; 30 min): 4.98E+03
Peak Area of MRM: 188.7/144.0 (analyte VLS-03-10 Parent) ([3]; 60 min): 4.66E+03
Peak Area of MRM: 188.7/144.0 (analyte VLS-03-10 Parent) ([3]; 120 min): 4.93E+03
Peak Area of MRM: 188.7/144.0 (analyte VLS-03-10 Parent) ([3]; 240 min): 4.61E+03
Remaining Percentage ([3]; Table 8, 0 min): 100.00%
Remaining Percentage ([3]; Table 8, 30 min): 99.86%
Remaining Percentage ([3]; Table 8, 60 min): 104.95%
Remaining Percentage ([3]; Table 8, 120 min): 98.41%
Remaining Percentage ([3]; Table 8, 240 min): 98.86%
half-life [3]: 4.87 days
Peak Area of MRM: 188.7/144.0 (analyte VLS-03-10 Parent) ([3]; VLS-03-10 standard): 3.46E+03
Peak Area of MRM: 188.7/144.0 (analyte VLS-03-10 Parent) ([4]; 0 min): 5.13E+03
Peak Area of MRM: 188.7/144.0 (analyte VLS-03-10 Parent) ([4]; 30 min): 5.10E+03
Peak Area of MRM: 188.7/144.0 (analyte VLS-03-10 Parent) ([4]; 60 min): 5.25E+03
Peak Area of MRM: 188.7/144.0 (analyte VLS-03-10 Parent) ([4]; 120 min): 5.32E+03
Peak Area of MRM: 188.7/144.0 (analyte VLS-03-10 Parent) ([4]; 240 min): 5.28E+03
Remaining Percentage ([4]; Table 8, 0 min): 100.00%
Remaining Percentage ([4]; Table 8, 30 min): 96.82%
Remaining Percentage ([4]; Table 8, 60 min): 93.09%
Remaining Percentage ([4]; Table 8, 120 min): 91.42%
Remaining Percentage ([4]; Table 8, 240 min): 89.32%
half-life [4, 7]: 1600 min
Peak Area of MRM: 188.7/144.0 (analyte VLS-03-10 Parent) ([4]; VLS-03-10 standard): 4.05E+03
half-life [5]: 13.8 days
Remaining Percentage ([6]; Table 9, 0 min): 100.00%
Remaining Percentage ([6]; Table 9, 15 min): 0.00%
Remaining Percentage ([6]; Table 9, 30 min): 0.00%
Remaining Percentage ([6]; Table 9, 60 min): 0.00%
Remaining Percentage ([6]; Table 9, 120 min): 0.00%

CC(OC(=O)n1cc(CCN(C)C)c2ccccc21)OC(=O)C(C)(C)C (racemic) [VLS-03-15]
Peak Area of MRM: 205.0/159.8 (analyte VLS-03-15 Parent) ([2]; 0 min): 6.56E+05
Peak Area of MRM: 205.0/159.8 (analyte VLS-03-15 Parent) ([2]; 30 min): 6.55E+05
Peak Area of MRM: 205.0/159.8 (analyte VLS-03-15 Parent) ([2]; 60 min): 6.28E+05
Peak Area of MRM: 205.0/159.8 (analyte VLS-03-15 Parent) ([2]; 120 min): 5.86E+05
Peak Area of MRM: 205.0/159.8 (analyte VLS-03-15 Parent) ([2]; 240 min): 5.51E+05
Remaining Percentage ([2]; Table 8, 0 min): 100.00%
Remaining Percentage ([2]; Table 8, 30 min): 96.93%
Remaining Percentage ([2]; Table 8, 60 min): 89.82%
Remaining Percentage ([2]; Table 8, 120 min): 89.44%
Remaining Percentage ([2]; Table 8, 240 min): 82.54%
Peak Area of MRM: 205.0/159.8 (analyte VLS-03-15 Parent) ([2]; VLS-03-15 standard): 6.74E+05
Peak Area of MRM: 205.0/159.8 (analyte VLS-03-15 Parent) ([3]; 0 min): 7.05E+05
Peak Area of MRM: 205.0/159.8 (analyte VLS-03-15 Parent) ([3]; 30 min): 6.94E+05
Peak Area of MRM: 205.0/159.8 (analyte VLS-03-15 Parent) ([3]; 60 min): 6.55E+05
Peak Area of MRM: 205.0/159.8 (analyte VLS-03-15 Parent) ([3]; 120 min): 7.09E+05
Peak Area of MRM: 205.0/159.8 (analyte VLS-03-15 Parent) ([3]; 240 min): 6.96E+05
Remaining Percentage ([3]; Table 8, 0 min): 100.00%
Remaining Percentage ([3]; Table 8, 30 min): 101.12%
Remaining Percentage ([3]; Table 8, 60 min): 103.35%
Remaining Percentage ([3]; Table 8, 120 min): 105.28%
Remaining Percentage ([3]; Table 8, 240 min): 97.98%
half-life [3]: 5.44 days
Peak Area of MRM: 205.0/159.8 (analyte VLS-03-15 Parent) ([3]; VLS-03-15 standard): 6.10E+05
Peak Area of MRM: 205.0/159.8 (analyte VLS-03-15 Parent) ([4]; 0 min): 6.75E+05
Peak Area of MRM: 205.0/159.8 (analyte VLS-03-15 Parent) ([4]; 30 min): 7.21E+05
Peak Area of MRM: 205.0/159.8 (analyte VLS-03-15 Parent) ([4]; 60 min): 7.26E+05
Peak Area of MRM: 205.0/159.8 (analyte VLS-03-15 Parent) ([4]; 120 min): 7.14E+05
Peak Area of MRM: 205.0/159.8 (analyte VLS-03-15 Parent) ([4]; 240 min): 7.15E+05
Remaining Percentage ([4]; Table 8, 0 min): 100.00%
Remaining Percentage ([4]; Table 8, 30 min): 97.29%
Remaining Percentage ([4]; Table 8, 60 min): 107.53%
Remaining Percentage ([4]; Table 8, 120 min): 103.18%
Remaining Percentage ([4]; Table 8, 240 min): 102.22%
T½ [4, 7]: 6.94375 days
Peak Area of MRM: 205.0/159.8 (analyte VLS-03-15 Parent) ([4]; VLS-03-15 standard): 6.26E+05
half-life [5]: 0.641 days
Remaining Percentage ([6]; Table 9, 0 min): 100.00%
Remaining Percentage ([6]; Table 9, 15 min): 0.00%
Remaining Percentage ([6]; Table 9, 30 min): 0.00%
Remaining Percentage ([6]; Table 9, 60 min): 0.00%
Remaining Percentage ([6]; Table 9, 120 min): 0.00%
